Measurements published in the NIST ThermoML archive (doi:10.1021/je060107n).
± gives the expanded uncertainty stated by the source.

Assay: mn = molality of the nth substance listed, in mol/kg
Settings: 101 kPa, Liquid; for mass density: Pycnometric method; for viscosity: Capillary tube (Ostwald / Ubbelohde) method; for speed of sound: Linear variable-path acoustic interferometer

O=[N+]([O-])[O-].O=[N+]([O-])[O-].[Mg+2] [magnesium nitrate] + O
Settings | mass density [kg/m3] | speed of sound [m/s] | viscosity [mPa·s]
306.45 K, m1 = 0.0145 | 995.89 ± 0.66 | – | –
306.5 K, m1 = 0.896 | 1083.6 ± 0.7 | – | –
306.5 K, m1 = 3.096 | 1266.4 ± 0.8 | – | –
306.65 K, m1 = 0.5931 | 1054 ± 0.7 | – | –
306.65 K, m1 = 3.501 | 1294.4 ± 0.9 | – | –
306.7 K, m1 = 3.118 | 1267.2 ± 0.8 | – | –
306.7 K, m1 = 3.757 | 1310.9 ± 0.9 | – | –
306.7 K, m1 = 5.134 | 1397 ± 1 | – | –
306.75 K, m1 = 4.728 | 1373.4 ± 1 | – | –
306.8 K, m1 = 3.17 | 1276 ± 0.9 | – | –
307.05 K, m1 = 0.6173 | 1056.6 ± 0.7 | – | –
307.05 K, m1 = 4.883 | 1379.9 ± 1 | – | –
307.25 K, m1 = 1.827 | 1167 ± 0.8 | – | –
307.45 K, m1 = 4.039 | 1327.9 ± 1 | – | –
307.6 K, m1 = 2.584 | 1228.1 ± 0.9 | – | –
307.65 K, m1 = 4.97 | 1385.7 ± 1 | – | –
307.7 K, m1 = 3.704 | 1307.2 ± 0.8 | – | –
307.8 K, m1 = 2.793 | 1243.4 ± 0.8 | – | –
307.9 K, m1 = 1.694 | 1154 ± 0.8 | – | –
307.95 K, m1 = 0.2491 | 1020.1 ± 0.7 | – | –
308.1 K, m1 = 4.403 | 1351 ± 0.9 | – | –
308.15 K, m1 = 0.0145 | – | 1520.8 ± 1.9 | 0.7364 ± 0.0097
308.15 K, m1 = 0.0528 | – | 1522.6 ± 1.9 | 0.745 ± 0.0099
308.15 K, m1 = 0.2491 | – | 1536.2 ± 1.9 | 0.7877 ± 0.01
308.15 K, m1 = 0.3405 | – | 1539.2 ± 1.9 | –
308.15 K, m1 = 0.5931 | – | – | 0.8757 ± 0.011
308.15 K, m1 = 0.6173 | – | 1559.2 ± 1.9 | –
308.15 K, m1 = 0.896 | – | 1578.7 ± 1.9 | –
308.15 K, m1 = 0.9898 | – | 1585.6 ± 1.9 | 1.005 ± 0.013
308.15 K, m1 = 1.262 | – | 1602.4 ± 1.9 | 1.11 ± 0.015
308.15 K, m1 = 1.525 | – | 1621.7 ± 1.9 | –
308.15 K, m1 = 1.827 | – | 1644.8 ± 1.9 | 1.342 ± 0.017
308.15 K, m1 = 2.131 | – | 1666.7 ± 2 | 1.498 ± 0.019
308.15 K, m1 = 2.493 | – | 1688 ± 2 | –
308.15 K, m1 = 2.584 | – | – | 1.777 ± 0.023
308.15 K, m1 = 2.793 | – | 1708.9 ± 2 | –
308.15 K, m1 = 3.096 | – | – | 2.146 ± 0.028
308.15 K, m1 = 3.118 | – | 1728.7 ± 2 | –
308.15 K, m1 = 3.17 | – | 1735.9 ± 2 | –
308.15 K, m1 = 3.329 | – | – | 2.343 ± 0.031
308.15 K, m1 = 3.501 | – | 1752.2 ± 2 | –
308.15 K, m1 = 3.704 | – | – | 2.692 ± 0.035
308.15 K, m1 = 3.757 | – | 1770.5 ± 2 | –
308.15 K, m1 = 4.039 | – | – | 3.089 ± 0.04
308.15 K, m1 = 4.051 | – | 1781.1 ± 2 | –
308.15 K, m1 = 4.285 | – | 1794.4 ± 2 | –
308.15 K, m1 = 4.403 | – | 1800.6 ± 2.1 | –
308.15 K, m1 = 4.728 | – | – | 4.262 ± 0.056
308.15 K, m1 = 4.883 | – | 1826.2 ± 2.1 | –
308.15 K, m1 = 4.907 | – | – | 4.654 ± 0.061
308.15 K, m1 = 5.134 | – | 1838.4 ± 2.1 | –
308.15 K, m1 = 5.282 | – | – | 5.506 ± 0.072
308.35 K, m1 = 0.9898 | 1091.9 ± 0.7 | – | –
308.4 K, m1 = 1.525 | 1138.7 ± 0.8 | – | –
308.45 K, m1 = 1.262 | 1116 ± 0.8 | – | –
308.55 K, m1 = 0.3405 | 1028.5 ± 0.7 | – | –
308.7 K, m1 = 5.282 | 1404.1 ± 1 | – | –
308.75 K, m1 = 3.757 | 1309.6 ± 0.9 | – | –
308.85 K, m1 = 3.096 | 1265 ± 0.8 | – | –
308.85 K, m1 = 4.285 | 1343.6 ± 0.9 | – | –
308.95 K, m1 = 3.118 | 1265.8 ± 0.8 | – | –
309 K, m1 = 0.896 | 1082.4 ± 0.7 | – | –
309.05 K, m1 = 4.728 | 1371.9 ± 1 | – | –
309.25 K, m1 = 2.131 | 1191 ± 0.8 | – | –
309.3 K, m1 = 2.493 | 1218.8 ± 0.9 | – | –
309.35 K, m1 = 4.883 | 1378.4 ± 0.9 | – | –
309.4 K, m1 = 4.051 | 1326.7 ± 0.9 | – | –
309.5 K, m1 = 0.0145 | 994.82 ± 0.66 | – | –
309.5 K, m1 = 0.5931 | 1052.8 ± 0.7 | – | –
309.5 K, m1 = 0.6173 | 1055.5 ± 0.7 | – | –
309.6 K, m1 = 0.0528 | 999.02 ± 0.66 | – | –
309.65 K, m1 = 1.827 | 1165.8 ± 0.8 | – | –
309.75 K, m1 = 4.97 | 1384.3 ± 1 | – | –
309.9 K, m1 = 2.584 | 1226.7 ± 0.9 | – | –
309.95 K, m1 = 3.704 | 1305.7 ± 0.9 | – | –
310.1 K, m1 = 1.694 | 1152.8 ± 0.8 | – | –
310.15 K, m1 = 4.403 | 1349.7 ± 0.9 | – | –
310.7 K, m1 = 0.9898 | 1090.8 ± 0.7 | – | –
310.8 K, m1 = 0.2491 | 1019 ± 0.7 | – | –
310.9 K, m1 = 3.096 | 1263.8 ± 0.8 | – | –
310.95 K, m1 = 1.262 | 1114.7 ± 0.8 | – | –
311 K, m1 = 3.501 | 1291.7 ± 0.9 | – | –
311 K, m1 = 3.757 | 1308.1 ± 0.9 | – | –
311.05 K, m1 = 3.17 | 1273.3 ± 0.9 | – | –
311.2 K, m1 = 3.118 | 1264.5 ± 0.8 | – | –
311.25 K, m1 = 2.131 | 1189.9 ± 0.8 | – | –
311.25 K, m1 = 4.728 | 1370.6 ± 0.9 | – | –
311.35 K, m1 = 5.134 | 1394 ± 0.8 | – | –
311.45 K, m1 = 4.883 | 1377.1 ± 1 | – | –
311.55 K, m1 = 0.896 | 1081.3 ± 0.8 | – | –
311.75 K, m1 = 1.827 | 1164.7 ± 1.1 | – | –
311.9 K, m1 = 4.039 | 1325 ± 0.9 | – | –
311.95 K, m1 = 5.282 | 1402.5 ± 0.9 | – | –
312 K, m1 = 4.97 | 1382.9 ± 0.9 | – | –
312.1 K, m1 = 0.6173 | 1054.3 ± 0.7 | – | –
312.15 K, m1 = 1.694 | 1151.6 ± 0.8 | – | –
312.15 K, m1 = 2.793 | 1240.8 ± 0.9 | – | –
312.25 K, m1 = 0.0528 | 997.99 ± 0.67 | – | –
312.4 K, m1 = 4.403 | 1348.2 ± 0.9 | – | –
312.45 K, m1 = 0.0145 | 993.76 ± 0.67 | – | –
312.95 K, m1 = 1.525 | 1136.3 ± 0.7 | – | –
313.1 K, m1 = 1.262 | 1113.5 ± 0.8 | – | –
313.15 K, m1 = 0.0145 | – | 1532.2 ± 1.9 | 0.6666 ± 0.0088
313.15 K, m1 = 0.0528 | – | 1531.9 ± 1.9 | 0.6778 ± 0.0089
313.15 K, m1 = 0.2491 | – | 1544.5 ± 1.9 | 0.7155 ± 0.0094
313.15 K, m1 = 0.3405 | – | 1546 ± 1.9 | –
313.15 K, m1 = 0.5931 | – | – | 0.7972 ± 0.01
313.15 K, m1 = 0.6173 | – | 1566.4 ± 1.9 | –
313.15 K, m1 = 0.896 | – | 1584.7 ± 1.9 | –
313.15 K, m1 = 0.9898 | – | 1591.3 ± 1.9 | 0.913 ± 0.012
313.15 K, m1 = 1.262 | – | 1607.1 ± 1.9 | 1.008 ± 0.013
313.15 K, m1 = 1.525 | – | 1625.9 ± 1.9 | –
313.15 K, m1 = 1.827 | – | 1647.8 ± 1.9 | 1.305 ± 0.017
313.15 K, m1 = 2.131 | – | 1667.8 ± 2 | 1.364 ± 0.018
313.15 K, m1 = 2.493 | – | 1688.9 ± 2 | –
313.15 K, m1 = 2.584 | – | – | 1.616 ± 0.021
313.15 K, m1 = 2.793 | – | 1709 ± 2 | –
313.15 K, m1 = 3.096 | 1262.3 ± 0.8 | – | 1.947 ± 0.025
313.15 K, m1 = 3.118 | – | 1728.1 ± 2 | –
313.15 K, m1 = 3.17 | – | 1734.7 ± 2 | –
313.15 K, m1 = 3.329 | – | – | 2.128 ± 0.028
313.15 K, m1 = 3.501 | – | 1751.2 ± 2 | –
313.15 K, m1 = 3.704 | – | – | 2.435 ± 0.032
313.15 K, m1 = 3.757 | – | 1767.8 ± 2 | –
313.15 K, m1 = 4.039 | – | – | 2.798 ± 0.036
313.15 K, m1 = 4.051 | – | 1778.4 ± 2 | –
313.15 K, m1 = 4.285 | – | 1791.3 ± 2 | –
313.15 K, m1 = 4.403 | – | 1797.9 ± 2.1 | –
313.15 K, m1 = 4.728 | – | – | 3.817 ± 0.05
313.15 K, m1 = 4.883 | – | 1823.1 ± 2.1 | –
313.15 K, m1 = 4.907 | – | – | 4.176 ± 0.055
313.15 K, m1 = 5.134 | – | 1834.3 ± 2.1 | –
313.15 K, m1 = 5.282 | – | – | 4.924 ± 0.065
313.25 K, m1 = 3.118 | 1263.3 ± 0.8 | – | –
313.25 K, m1 = 4.285 | 1340.7 ± 1.1 | – | –
313.45 K, m1 = 0.2491 | 1017.9 ± 0.7 | – | –
313.5 K, m1 = 2.493 | 1216.4 ± 0.9 | – | –
313.6 K, m1 = 2.131 | 1188.5 ± 0.8 | – | –
313.7 K, m1 = 0.3405 | 1026.4 ± 0.7 | – | –
313.7 K, m1 = 4.883 | 1375.5 ± 0.9 | – | –
313.8 K, m1 = 0.896 | 1080.2 ± 0.8 | – | –
313.8 K, m1 = 4.051 | 1324 ± 0.9 | – | –
314.1 K, m1 = 2.793 | 1239.5 ± 0.9 | – | –
314.15 K, m1 = 3.704 | 1303 ± 0.9 | – | –
314.15 K, m1 = 5.282 | 1401.1 ± 1 | – | –
314.25 K, m1 = 2.584 | 1224.2 ± 0.9 | – | –
314.45 K, m1 = 0.5931 | 1050.6 ± 0.7 | – | –
314.45 K, m1 = 0.6173 | 1053.3 ± 0.7 | – | –
314.5 K, m1 = 1.694 | 1150.4 ± 0.9 | – | –
314.5 K, m1 = 4.403 | 1346.8 ± 1 | – | –
